In ChEMBL document CHEMBL4725493, “Novel 2-Aryloxazoline Compounds Exhibit an Inhibitory Effect on Candida spp., Including Antifungal-Resistant Isolates” (ACS Med Chem Lett, 2020):
Converted amounts (≈) assume the structure as drawn. The source made the active and inactive calls. The calls are words filed in the database; no cut-off is given here.

How the values were obtained:
[1] = test system: Erythrocyte; assay: Hemolytic activity in human RBC by spectrophotometry; assay type: ADME, cell-based
[2] = Selectivity index, ratio of HA50 to human RCB to MIC of antifungal activity against Candida tropicalis ATCC 200956; assay type: toxicity; settings: human red blood cells (RCB)
[3] = test system: Candida tropicalis; assay: Antifungal activity against Candida tropicalis ATCC 200956 by CLSI standard M27 broth microdilution method; assay type: functional
[4] = test system: HepG2; assay: Cytotoxicity against human HepG2 cells assessed as reduction in cell viability by XTT assay; assay type: cell-based
[5] = Selectivity index, ratio of CC50 of human HepG2 cells to MIC of antifungal activity against Candida tropicalis ATCC 200956; assay type: toxicity
[6] = test system: [Candida] auris; assay: Antifungal activity against Candida auris CBS 10913 by CLSI standard M27 broth microdilution method; assay type: functional; settings: Candidozyma auris
[7] = Antifungal activity against Candida pseudohaemulonis CBS 10004 by broth microdilution method; assay type: functional; settings: Candidozyma pseudohaemuli
[8] = test system: [Candida] auris; assay: Antifungal activity against Candida auris CBS 12766 by CLSI standard M27 broth microdilution method; assay type: functional; settings: Candidozyma auris
[9] = test system: Candida duobushaemulonii; assay: Antifungal activity against Candida duobushaemulonis CBS 7799 by CLSI standard M27 broth microdilution method; assay type: functional; settings: Candidozyma duobushaemuli
[10] = test system: Cryptococcus neoformans; assay: Fungicidal activity against Cryptococcus neoformans ATCC 208821 assessed as loss of fungal growth by CLSI method; assay type: functional, organism-based
[11] = test system: Cryptococcus gattii; assay: Fungicidal activity against Cryptococcus gattii ATCC 56990 assessed as loss of fungal growth by CLSI method; assay type: functional, organism-based; settings: Cryptococcus bacillisporus
[12] = test system: Aspergillus fumigatus; assay: Antifungal activity against Aspergillus fumigatus ATCC 16913 by CLSI standard M38 broth microdilution method; assay type: functional, organism-based
[13] = test system: Aspergillus niger; assay: Antifungal activity against Aspergillus niger by CLSI standard M38 broth microdilution method; assay type: functional, organism-based

SMILES	Activity [1] [µg/mL]	selectivity ratio [2]	MIC [3] [µg/mL]	CC50 [4] [µg/mL]	selectivity ratio [5]	MIC [6] [µg/mL]	MIC [7] [µg/mL]	MIC [8] [µg/mL]	MIC [9] [µg/mL]	Activity [10]	Activity [11]	inhibition [12]	inhibition [13]
C[C@@H]1OC(c2cc(Cl)c3ccccc3c2O)=N[C@@H]1C(=O)OCc1ccccc1	> 128	≥ 64	0.06 (≈ 0.152 µM)	15 (≈ 37.9 µM)	8								
C[C@H]1OC(c2cc(Br)ccc2O)=N[C@H]1C(=O)OCc1ccccc1	> 128	≥ 128	≤ 0.03	88 (≈ 226 µM)	≥ 88								
C[C@H]1OC(c2ccc(I)cc2O)=N[C@H]1C(=O)OCc1ccccc1	> 128	≥ 128	≤ 0.03	62 (≈ 142 µM)	≥ 62								
COC(=O)C1N=C(c2cc(Cl)c3ccccc3c2O)O[C@H]1C (single isomer, unassigned)	> 128	≥ 16	0.25 (≈ 0.782 µM)	11 (≈ 34.4 µM)	1								
OC(Cn1cncn1)(Cn1cncn1)c1ccc(F)cc1F [FLUCONAZOLE]	> 128	≥ 1	1 (≈ 3.27 µM)	> 128	≥ 1	2 (≈ 6.53 µM)	16 (≈ 52.2 µM)	> 0.064	> 64				
C[C@H]1OC(c2ccc(N=[N+]=[N-])cc2O)=N[C@H]1C(=O)OCc1ccccc1	> 128	≥ 128	≤ 0.03	100 (≈ 284 µM)	≥ 100								
C[C@@H]1OC(c2cc(Cl)c3ccccc3c2O)=NC1C(=O)Nc1ccc2ncsc2c1 (single isomer, unassigned)	> 128	≥ 1070	≤ 0.03	16 (≈ 36.5 µM)	≥ 133	0.06 (≈ 0.137 µM)	0.03 (≈ 0.0685 µM)	2 (≈ 4.57 µM)	0.06 (≈ 0.137 µM)	Active	Active	Active	Active
C[C@@H](O)[C@H](NC(=O)c1ccc2ccccc2c1O)C(=O)OCc1ccccc1	> 128	> 8	8 (≈ 21.1 µM)	40 (≈ 105 µM)	3								
C[C@@H]1OC(c2cc(Cl)c3ccccc3c2O)=N[C@@H]1C(=O)OC[C@H]1COC(C)(C)O1	> 128	≥ 16	≤ 0.03	7.2 (≈ 17.1 µM)	≥ 1								
C#CCNC(=O)C1N=C(c2cc(Cl)c3ccccc3c2O)O[C@H]1C (single isomer, unassigned)	> 128	≥ 512	≤ 0.03	33 (≈ 96.3 µM)	≥ 132								
C[C@@H]1OC(c2cc(Cl)c3ccccc3c2O)=N[C@@H]1C(=O)OC/C=C/c1ccccc1	> 128	≥ 8	≤ 0.03	10 (≈ 23.7 µM)	≥ 1								
COc1cccc(O)c1C1=N[C@@H](C(=O)OCc2ccccc2)[C@@H](C)O1	> 128	≥ 8	0.12 (≈ 0.352 µM)	101 (≈ 296 µM)	6								
C[C@@H]1OC(c2ccc3ccccc3c2O)=N[C@@H]1C(=O)OCc1ccccc1	> 128	≥ 256	≤ 0.03	88 (≈ 243 µM)	≥ 176								
C[C@H]1OC(c2ccc(Cl)cc2O)=N[C@H]1C(=O)OCc1ccccc1	> 128	≥ 512	≤ 0.03	95 (≈ 275 µM)	≥ 380	0.06 (≈ 0.174 µM)	0.25 (≈ 0.723 µM)	2 (≈ 5.78 µM)	0.5 (≈ 1.45 µM)	Active	Active	Active	Active
CC[C@H](C)C[C@H](C)CCCCCCCCC(=O)N[C@H]1C[C@@H](O)[C@@H](NCCN)NC(=O)[C@@H]2[C@@H](O)CCN2C(=O)[C@H]([C@H](O)CCN)NC(=O)[C@H]([C@H](O)[C@@H](O)c2ccc(O)cc2)NC(=O)[C@@H]2C[C@@H](O)CN2C(=O)[C@H]([C@@H](C)O)NC1=O [CASPOFUNGIN]		≥ 16	≤ 0.03	32 (≈ 29.3 µM)	16	0.12 (≈ 0.11 µM)	0.5 (≈ 0.457 µM)	0.25 (≈ 0.229 µM)	0.25 (≈ 0.229 µM)				
C[C@H]1OC(c2cc(I)ccc2O)=N[C@H]1C(=O)OCc1ccccc1	> 128	≥ 128	≤ 0.03	64 (≈ 146 µM)	≥ 64								
C[C@@H]1OC(c2cc(Cl)c3ccccc3c2O)=NC1C(=O)Nc1ccccc1NC(=O)[C@@H]1N=C(c2cc(Cl)c3ccccc3c2O)O[C@@H]1C (single isomer, unassigned)	> 128	≥ 32	≤ 0.03	90 (≈ 132 µM)	≥ 23								
COc1ccc(O)c(C2=N[C@@H](C(=O)OCc3ccccc3)[C@@H](C)O2)c1	> 128	≥ 32	≤ 0.03	100 (≈ 293 µM)	25								
C[C@@H]1OC(c2cc(Cl)c3ccccc3c2O)=NC1C(=O)OCc1ccoc1 (single isomer, unassigned)	> 128	≥ 32	≤ 0.03	6 (≈ 15.6 µM)	≥ 2								
C=CCOC(=O)C1N=C(c2cc(Cl)c3ccccc3c2O)O[C@H]1C (single isomer, unassigned)	> 128	≥ 128	≤ 0.03	11 (≈ 31.8 µM)	≥ 11								
COC(=O)[C@H]1N=C(c2ccc3ccccc3c2O)O[C@H]1C	> 128	≥ 8	0.06 (≈ 0.21 µM)	84 (≈ 294 µM)	5								
CCNC(=O)C1N=C(c2cc(Cl)c3ccccc3c2O)O[C@H]1C (single isomer, unassigned)	> 128	≥ 128	0.06 (≈ 0.18 µM)		≥ 128								
C[C@H]1OC(c2ccc(Br)cc2O)=N[C@H]1C(=O)OCc1ccccc1	> 128	≥ 128	0.06 (≈ 0.154 µM)	62 (≈ 159 µM)	62								
C[C@H]1OC(c2cc(F)ccc2O)=N[C@H]1C(=O)OCc1ccccc1	> 128	≥ 128	≤ 0.03	> 128	≥ 128								
C[C@@H]1OC(c2cc(Br)c3ccccc3c2O)=N[C@@H]1C(=O)OCc1ccccc1 (single isomer, unassigned)	> 128	≥ 256	≤ 0.03	9 (≈ 20.4 µM)	≥ 18								
C[C@@H]1[C@H](O)[C@@H](C)/C=C/C=C/C=C/C=C/C=C/C=C/C=C/[C@H](O[C@@H]2O[C@H](C)[C@@H](O)[C@H](N)[C@@H]2O)C[C@@H]2O[C@](O)(C[C@@H](O)C[C@@H](O)[C@H](O)CC[C@@H](O)C[C@@H](O)CC(=O)O[C@H]1C)C[C@H](O)[C@H]2C(=O)O [AMPHOTERICIN B]	17	≥ 68	≤ 0.03	4 (≈ 4.33 µM)	≥ 16	0.5 (≈ 0.541 µM)	8 (≈ 8.66 µM)	2 (≈ 2.16 µM)	4 (≈ 4.33 µM)				
CCNC(=O)[C@H]1N=C(c2ccc3ccccc3c2O)O[C@H]1C	> 128	≥ 128	≤ 0.03	> 128	≥ 128								
C[C@H]1OC(c2ccccc2O)=N[C@H]1C(=O)OCc1ccccc1	> 128	≥ 32	≤ 0.03	102 (≈ 328 µM)	≥ 26								
